Measurements as given in ChEMBL document CHEMBL3390848, “Affinity selection and sequence-activity relationships of HIV-1 membrane fusion inhibitors directed at the drug-resistant variants” (Medchemcomm, 2010).
Residues, ends and D or L forms follow the SMILES beside them.

Columns and labels:
[1] = test system: Human immunodeficiency virus 1; assay: Antiviral activity against HIV1 NL4-3 harboring gp41 D36G mutant infected in human HeLa cells expressing CD4-LTR-beta-gal assessed as inhibition of viral replication after 48 hrs by MAGI assay; assay type: functional, organism-based
[2] = test system: Human immunodeficiency virus 1; assay: Binding affinity to HIV1 His-tagged N-terminal heptad repeat of envelope glycoprotein gp41 assessed as recovery of N54-drug complex after 2 hrs by LC-MS analysis; set-up: concentration or dose not given beside the values
[3] = test system: Human immunodeficiency virus 1; assay: Thermal stability of HIV1 envelope glycoprotein gp41 His-tagged N-terminal heptad repeat N54-drug complex assessed as thermal unfolding transition state by measuring molar ellipticity at 4 to 90 degC by circular dichroic spectra analysis

Row | SMILES | EC50 [1] | Activity [2] | Tm [3]
1 | CC[C@H](C)[C@H](NC(=O)[C@H](CC(C)C)NC(=O)[C@H](CCC(=O)O)NC(=O)[C@H](CCC(=O)O)NC(=O)[C@@H](NC(=O)[C@H](CC(C)C)NC(=O)[C@H](CO)NC(=O)[C@@H](NC(=O)[C@H](Cc1ccc(O)cc1)NC(C)=O)[C@@H](C)O)[C@@H](C)CC)C(=O)N[C@@H](CCCCN)C(=O)N[C@@H](CCCCN)C(=O)N[C@@H](CO)C(=O)N[C@@H](CCC(=O)O)C(=O)N[C@@H](CCC(=O)O)C(=O)N[C@@H](Cc1ccccc1)C(=O)N[C@@H](CCC(N)=O)C(=O)N[C@@H](CCCCN)C(=O)N[C@@H](CCCCN)C(=O)N[C@@H](CC(N)=O)C(=O)N[C@@H](CCC(=O)O)C(=O)N[C@@H](CCC(=O)O)C(=O)N[C@@H](CCC(=O)O)C(=O)N[C@@H](CC(C)C)C(=O)N[C@@H](CCCCN)C(=O)N[C@@H](CCCCN)C(=O)N[C@@H](CC(C)C)C(=O)N[C@@H](CCC(=O)O)C(=O)N[C@@H](CCC(=O)O)C(=O)N[C@@H](Cc1c[nH]c2ccccc12)C(=O)N[C@@H](C)C(=O)N[C@@H](CCCCN)C(=O)N[C@@H](CCCCN)C(=O)N[C@@H](Cc1c[nH]c2ccccc12)C(=O)N[C@@H](CC(N)=O)C(=O)N[C@@H](Cc1c[nH]c2ccccc12)C(=O)N[C@@H](Cc1ccccc1)C(N)=O (Ac-YTSLIEELIKKSEEFQKKNEEELKKLEEWAKKWNWF-NH2) | 2.6 nM | 5.3% | 64 °C
2 | CC[C@H](C)[C@H](NC(=O)[C@H](CC(C)C)NC(=O)[C@H](CCC(=O)O)NC(=O)[C@H](CCC(=O)O)NC(=O)[C@@H](NC(=O)[C@H](CC(C)C)NC(=O)[C@H](CO)NC(=O)[C@@H](NC(=O)[C@H](Cc1ccc(O)cc1)NC(C)=O)[C@@H](C)O)[C@@H](C)CC)C(=O)N[C@@H](CCCCN)C(=O)N[C@@H](CCCCN)C(=O)N[C@@H](CO)C(=O)N[C@@H](CCC(=O)O)C(=O)N[C@@H](CCC(=O)O)C(=O)N[C@@H](Cc1ccc(O)cc1)C(=O)N[C@@H](CCC(N)=O)C(=O)N[C@@H](CCCCN)C(=O)N[C@@H](CCCCN)C(=O)N[C@@H](CC(N)=O)C(=O)N[C@@H](CCC(=O)O)C(=O)N[C@@H](CCC(=O)O)C(=O)N[C@@H](CCC(=O)O)C(=O)N[C@@H](CC(C)C)C(=O)N[C@@H](CCCCN)C(=O)N[C@@H](CCCCN)C(=O)N[C@@H](CC(C)C)C(=O)N[C@@H](CCC(=O)O)C(=O)N[C@@H](CCC(=O)O)C(=O)N[C@@H](Cc1c[nH]c2ccccc12)C(=O)N[C@@H](C)C(=O)N[C@@H](CCCCN)C(=O)N[C@@H](CCCCN)C(=O)N[C@@H](Cc1c[nH]c2ccccc12)C(=O)N[C@@H](CC(N)=O)C(=O)N[C@@H](Cc1c[nH]c2ccccc12)C(=O)N[C@@H](Cc1ccccc1)C(N)=O (Ac-YTSLIEELIKKSEEYQKKNEEELKKLEEWAKKWNWF-NH2) | 2.3 nM | 4.9% | 67.7 °C
3 | CC[C@H](C)[C@H](NC(=O)[C@H](CC(C)C)NC(=O)[C@H](CCC(=O)O)NC(=O)[C@H](CCC(=O)O)NC(=O)[C@@H](NC(=O)[C@H](CC(C)C)NC(=O)[C@H](CO)NC(=O)[C@@H](NC(=O)[C@H](Cc1ccc(O)cc1)NC(C)=O)[C@@H](C)O)[C@@H](C)CC)C(=O)N[C@@H](CCCCN)C(=O)N[C@@H](CCCCN)C(=O)N[C@@H](CCCNC(=N)N)C(=O)N[C@@H](CCC(=O)O)C(=O)N[C@@H](CCC(=O)O)C(=O)N[C@@H](CCC(N)=O)C(=O)N[C@@H](CCC(N)=O)C(=O)N[C@@H](CCCCN)C(=O)N[C@@H](CCCCN)C(=O)N[C@@H](CC(N)=O)C(=O)N[C@@H](CCC(=O)O)C(=O)N[C@@H](CCC(=O)O)C(=O)N[C@@H](CCC(=O)O)C(=O)N[C@@H](CC(C)C)C(=O)N[C@@H](CCCCN)C(=O)N[C@@H](CCCCN)C(=O)N[C@@H](CC(C)C)C(=O)N[C@@H](CCC(=O)O)C(=O)N[C@@H](CCC(=O)O)C(=O)N[C@@H](Cc1c[nH]c2ccccc12)C(=O)N[C@@H](C)C(=O)N[C@@H](CCCCN)C(=O)N[C@@H](CCCCN)C(=O)N[C@@H](Cc1c[nH]c2ccccc12)C(=O)N[C@@H](CC(N)=O)C(=O)N[C@@H](Cc1c[nH]c2ccccc12)C(=O)N[C@@H](Cc1ccccc1)C(=O)O (Ac-YTSLIEELIKKREEQQKKNEEELKKLEEWAKKWNWF-OH) | 320 nM | 1.5% | 49.4 °C
4 | CC[C@H](C)[C@H](NC(=O)[C@H](CC(C)C)NC(=O)[C@H](CCC(=O)O)NC(=O)[C@H](CCC(=O)O)NC(=O)[C@@H](NC(=O)[C@H](CC(C)C)NC(=O)[C@H](CO)NC(=O)[C@@H](NC(=O)[C@H](Cc1ccc(O)cc1)NC(C)=O)[C@@H](C)O)[C@@H](C)CC)C(=O)N[C@@H](CCCCN)C(=O)N[C@@H](CCCCN)C(=O)N[C@@H](CO)C(=O)N[C@@H](CCC(=O)O)C(=O)N[C@@H](CCC(=O)O)C(=O)N1CCC[C@H]1C(=O)N[C@@H](CCC(N)=O)C(=O)N[C@@H](CCCCN)C(=O)N[C@@H](CCCCN)C(=O)N[C@@H](CC(N)=O)C(=O)N[C@@H](CCC(=O)O)C(=O)N[C@@H](CCC(=O)O)C(=O)N[C@@H](CCC(=O)O)C(=O)N[C@@H](CC(C)C)C(=O)N[C@@H](CCCCN)C(=O)N[C@@H](CCCCN)C(=O)N[C@@H](CC(C)C)C(=O)N[C@@H](CCC(=O)O)C(=O)N[C@@H](CCC(=O)O)C(=O)N[C@@H](Cc1c[nH]c2ccccc12)C(=O)N[C@@H](C)C(=O)N[C@@H](CCCCN)C(=O)N[C@@H](CCCCN)C(=O)N[C@@H](Cc1c[nH]c2ccccc12)C(=O)N[C@@H](CC(N)=O)C(=O)N[C@@H](Cc1c[nH]c2ccccc12)C(=O)N[C@@H](Cc1ccccc1)C(N)=O (Ac-YTSLIEELIKKSEEPQKKNEEELKKLEEWAKKWNWF-NH2) | > 1000 nM | 0.3% | 52 °C
5 | CC[C@H](C)[C@H](NC(=O)[C@H](CC(C)C)NC(=O)[C@H](CCC(=O)O)NC(=O)[C@H](CCC(=O)O)NC(=O)[C@@H](NC(=O)[C@H](CC(C)C)NC(=O)[C@H](CO)NC(=O)[C@@H](NC(=O)[C@H](Cc1ccc(O)cc1)NC(C)=O)[C@@H](C)O)[C@@H](C)CC)C(=O)N[C@@H](CCCCN)C(=O)N[C@@H](CCCCN)C(=O)N[C@@H](CCSC)C(=O)N[C@@H](CCC(=O)O)C(=O)N[C@@H](CCC(=O)O)C(=O)N[C@@H](CCC(N)=O)C(=O)N[C@@H](CCC(N)=O)C(=O)N[C@@H](CCCCN)C(=O)N[C@@H](CCCCN)C(=O)N[C@@H](CC(N)=O)C(=O)N[C@@H](CCC(=O)O)C(=O)N[C@@H](CCC(=O)O)C(=O)N[C@@H](CCC(=O)O)C(=O)N[C@@H](CC(C)C)C(=O)N[C@@H](CCCCN)C(=O)N[C@@H](CCCCN)C(=O)N[C@@H](CC(C)C)C(=O)N[C@@H](CCC(=O)O)C(=O)N[C@@H](CCC(=O)O)C(=O)N[C@@H](Cc1c[nH]c2ccccc12)C(=O)N[C@@H](C)C(=O)N[C@@H](CCCCN)C(=O)N[C@@H](CCCCN)C(=O)N[C@@H](Cc1c[nH]c2ccccc12)C(=O)N[C@@H](CC(N)=O)C(=O)N[C@@H](Cc1c[nH]c2ccccc12)C(=O)N[C@@H](Cc1ccccc1)C(N)=O (Ac-YTSLIEELIKKMEEQQKKNEEELKKLEEWAKKWNWF-NH2) | 0.2 nM | 9.9% | 79 °C
6 | CC[C@H](C)[C@H](NC(=O)[C@H](CC(C)C)NC(=O)[C@H](CCC(=O)O)NC(=O)[C@H](CCC(=O)O)NC(=O)[C@@H](NC(=O)[C@H](CC(C)C)NC(=O)[C@H](CO)NC(=O)[C@@H](NC(=O)[C@H](Cc1ccc(O)cc1)NC(C)=O)[C@@H](C)O)[C@@H](C)CC)C(=O)N[C@@H](CCCCN)C(=O)N[C@@H](CCCCN)C(=O)NCC(=O)N[C@@H](CCC(=O)O)C(=O)N[C@@H](CCC(=O)O)C(=O)N[C@@H](CCC(N)=O)C(=O)N[C@@H](CCC(N)=O)C(=O)N[C@@H](CCCCN)C(=O)N[C@@H](CCCCN)C(=O)N[C@@H](CC(N)=O)C(=O)N[C@@H](CCC(=O)O)C(=O)N[C@@H](CCC(=O)O)C(=O)N[C@@H](CCC(=O)O)C(=O)N[C@@H](CC(C)C)C(=O)N[C@@H](CCCCN)C(=O)N[C@@H](CCCCN)C(=O)N[C@@H](CC(C)C)C(=O)N[C@@H](CCC(=O)O)C(=O)N[C@@H](CCC(=O)O)C(=O)N[C@@H](Cc1c[nH]c2ccccc12)C(=O)N[C@@H](C)C(=O)N[C@@H](CCCCN)C(=O)N[C@@H](CCCCN)C(=O)N[C@@H](Cc1c[nH]c2ccccc12)C(=O)N[C@@H](CC(N)=O)C(=O)N[C@@H](Cc1c[nH]c2ccccc12)C(=O)N[C@@H](Cc1ccccc1)C(N)=O (Ac-YTSLIEELIKKGEEQQKKNEEELKKLEEWAKKWNWF-NH2) | 0.4 nM | 9.6% | 76.7 °C
7 | CC[C@H](C)[C@H](NC(=O)[C@H](CC(C)C)NC(=O)[C@H](CCC(=O)O)NC(=O)[C@H](CCC(=O)O)NC(=O)[C@@H](NC(=O)[C@H](CC(C)C)NC(=O)[C@H](CO)NC(=O)[C@@H](NC(=O)[C@H](Cc1ccc(O)cc1)NC(C)=O)[C@@H](C)O)[C@@H](C)CC)C(=O)N[C@@H](CCCCN)C(=O)N[C@@H](CCCCN)C(=O)N[C@@H](CO)C(=O)N[C@@H](CCC(=O)O)C(=O)N[C@@H](CCC(=O)O)C(=O)N[C@@H](Cc1c[nH]c2ccccc12)C(=O)N[C@@H](CCC(N)=O)C(=O)N[C@@H](CCCCN)C(=O)N[C@@H](CCCCN)C(=O)N[C@@H](CC(N)=O)C(=O)N[C@@H](CCC(=O)O)C(=O)N[C@@H](CCC(=O)O)C(=O)N[C@@H](CCC(=O)O)C(=O)N[C@@H](CC(C)C)C(=O)N[C@@H](CCCCN)C(=O)N[C@@H](CCCCN)C(=O)N[C@@H](CC(C)C)C(=O)N[C@@H](CCC(=O)O)C(=O)N[C@@H](CCC(=O)O)C(=O)N[C@@H](Cc1c[nH]c2ccccc12)C(=O)N[C@@H](C)C(=O)N[C@@H](CCCCN)C(=O)N[C@@H](CCCCN)C(=O)N[C@@H](Cc1c[nH]c2ccccc12)C(=O)N[C@@H](CC(N)=O)C(=O)N[C@@H](Cc1c[nH]c2ccccc12)C(=O)N[C@@H](Cc1ccccc1)C(N)=O (Ac-YTSLIEELIKKSEEWQKKNEEELKKLEEWAKKWNWF-NH2) | 2.5 nM | 8.1% | 68.8 °C
